{"source": "BindingDB's records for doi:10.1124/jpet.301.3.1166", "about": "(University of North Carolina, 2002)", "key": {"[1]": {"target": "D(1A) dopamine receptor (Rattus norvegicus, UniProt P18901)", "sequence (P18901 whole entry)": "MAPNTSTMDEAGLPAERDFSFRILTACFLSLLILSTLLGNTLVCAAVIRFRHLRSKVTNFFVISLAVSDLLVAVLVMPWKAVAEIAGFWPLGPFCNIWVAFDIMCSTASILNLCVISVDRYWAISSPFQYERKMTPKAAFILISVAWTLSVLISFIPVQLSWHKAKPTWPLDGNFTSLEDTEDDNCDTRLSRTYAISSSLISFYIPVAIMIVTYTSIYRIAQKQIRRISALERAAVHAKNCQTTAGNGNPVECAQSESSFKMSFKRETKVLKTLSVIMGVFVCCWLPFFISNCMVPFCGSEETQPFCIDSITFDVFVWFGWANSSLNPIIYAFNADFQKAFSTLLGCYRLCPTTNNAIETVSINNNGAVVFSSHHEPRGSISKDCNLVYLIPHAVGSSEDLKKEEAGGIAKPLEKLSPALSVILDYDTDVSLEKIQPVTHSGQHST"}, "[2]": {"target": "D(2) dopamine receptor (Rattus norvegicus, UniProt P61169)", "sequence (P61169 whole entry)": "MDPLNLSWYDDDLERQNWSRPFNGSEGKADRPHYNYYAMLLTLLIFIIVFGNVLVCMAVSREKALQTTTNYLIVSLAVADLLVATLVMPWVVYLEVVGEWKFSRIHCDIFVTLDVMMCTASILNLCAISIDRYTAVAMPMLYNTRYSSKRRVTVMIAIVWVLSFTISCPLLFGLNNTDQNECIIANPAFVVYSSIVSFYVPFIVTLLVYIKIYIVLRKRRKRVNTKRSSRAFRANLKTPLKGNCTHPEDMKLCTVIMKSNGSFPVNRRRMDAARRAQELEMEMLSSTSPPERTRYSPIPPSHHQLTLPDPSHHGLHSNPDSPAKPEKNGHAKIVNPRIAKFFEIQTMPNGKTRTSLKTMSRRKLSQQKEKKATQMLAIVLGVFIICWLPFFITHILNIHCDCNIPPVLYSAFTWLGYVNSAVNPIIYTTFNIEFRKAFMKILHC"}}, "note": "“And” between values parts separate entries of the source, which are not always exact repeats. Identical values can stand only once.", "data": [{"smiles": "CCCN1Cc2ccccc2[C@@H]2c3cc(O)c(O)cc3CC[C@H]21", "note": "[N-n-propyldihydrexidine, N-Pr-DHX]", "values": [{"measurement": "Ki", "setting": "[1]", "result": 0.32, "unit": "µM"}, {"measurement": "Ki", "setting": "[2]", "result": "0.0065 µM and 0.02 µM"}]}]}
